Laboratory results as given in US20180030108A1, “NOVEL VOLTAGE-DEPENDENT ION CHANNEL FUSIONS AND METHOD OF USE THEREOF” (UNIVERSITE DE BORDEAUX, priority 2015, published 2018).

Columns and labels:
YFP-hTRPV1-rLuc [1] = target: T1, YFP-hTRPV1-rLuc (Homo sapiens, UniProt Q8NER1); test: Intramolecular YFP-hTRPV1-rLuc BRET probe in HEK293T cells; assay type: cell-based; details: for effect on the CAPS dose response curve: cells pre-incubated with 1 μM inhibitor (FIG. 10); for effect on the capsaicin dose-response curve: pre-incubated 5 minutes before readings, 37° C. (FIG. 6)
T1 construct: expressed in transfected cells; host or cells: HEK293T
T1 sequence (Q8NER1 whole entry): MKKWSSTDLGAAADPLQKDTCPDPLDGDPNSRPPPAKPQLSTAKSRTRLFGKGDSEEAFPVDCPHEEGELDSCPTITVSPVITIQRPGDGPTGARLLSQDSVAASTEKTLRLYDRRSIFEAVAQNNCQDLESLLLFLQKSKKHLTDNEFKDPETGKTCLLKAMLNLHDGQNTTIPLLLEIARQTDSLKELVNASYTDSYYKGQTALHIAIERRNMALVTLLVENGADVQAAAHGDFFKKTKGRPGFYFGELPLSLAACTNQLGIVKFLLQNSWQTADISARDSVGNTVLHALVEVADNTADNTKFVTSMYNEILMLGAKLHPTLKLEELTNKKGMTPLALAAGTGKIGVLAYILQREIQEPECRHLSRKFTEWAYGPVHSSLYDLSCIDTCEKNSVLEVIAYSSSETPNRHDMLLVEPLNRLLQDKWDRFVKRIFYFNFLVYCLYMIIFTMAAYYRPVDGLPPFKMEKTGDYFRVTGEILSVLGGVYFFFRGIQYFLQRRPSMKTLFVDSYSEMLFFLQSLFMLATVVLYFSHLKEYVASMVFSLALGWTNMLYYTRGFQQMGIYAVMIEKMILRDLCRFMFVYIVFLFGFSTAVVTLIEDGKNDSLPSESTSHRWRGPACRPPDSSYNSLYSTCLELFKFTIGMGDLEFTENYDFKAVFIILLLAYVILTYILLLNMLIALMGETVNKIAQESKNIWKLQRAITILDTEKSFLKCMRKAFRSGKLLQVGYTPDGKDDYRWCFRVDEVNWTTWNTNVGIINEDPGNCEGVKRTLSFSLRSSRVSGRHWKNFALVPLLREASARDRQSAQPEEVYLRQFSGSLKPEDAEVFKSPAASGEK

YFP-hTRPV3-rLuc = YFP-hTRPV3-rLuc (Homo sapiens, UniProt Q8NET8); details: 33° C., kinetic
YFP-hTRPV3-rLuc, sequence (Q8NET8 whole entry): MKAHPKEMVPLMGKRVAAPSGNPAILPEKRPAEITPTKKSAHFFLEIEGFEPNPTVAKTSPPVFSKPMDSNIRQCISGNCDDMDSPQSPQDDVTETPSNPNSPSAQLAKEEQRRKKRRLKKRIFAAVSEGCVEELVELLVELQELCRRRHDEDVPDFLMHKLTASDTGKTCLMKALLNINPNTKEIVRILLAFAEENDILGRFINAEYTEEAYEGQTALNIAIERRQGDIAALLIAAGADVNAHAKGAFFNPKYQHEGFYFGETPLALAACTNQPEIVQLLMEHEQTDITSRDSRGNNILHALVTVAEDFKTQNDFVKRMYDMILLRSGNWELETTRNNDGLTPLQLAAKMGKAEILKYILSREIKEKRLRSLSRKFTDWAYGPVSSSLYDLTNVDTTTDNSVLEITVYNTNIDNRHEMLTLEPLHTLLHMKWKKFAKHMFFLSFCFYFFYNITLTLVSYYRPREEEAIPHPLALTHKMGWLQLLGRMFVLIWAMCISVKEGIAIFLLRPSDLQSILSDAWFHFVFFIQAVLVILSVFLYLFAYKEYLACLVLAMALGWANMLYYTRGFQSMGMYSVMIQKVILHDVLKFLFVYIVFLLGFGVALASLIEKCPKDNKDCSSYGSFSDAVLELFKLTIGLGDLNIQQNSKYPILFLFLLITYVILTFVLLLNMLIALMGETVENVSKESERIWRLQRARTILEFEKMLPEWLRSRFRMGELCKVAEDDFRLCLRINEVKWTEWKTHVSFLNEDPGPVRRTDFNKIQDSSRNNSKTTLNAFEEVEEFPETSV

TRPV1-Luc/YFP-CaM = TRPV1-Luc/YFP-CaM (Homo sapiens, UniProt Q8NER1); details: for effect on the CAPS dose response curve: cells pre-incubated with 1 μM inhibitor (FIG. 10)
TRPV1-Luc/YFP-CaM, sequence (Q8NER1 whole entry): as the sequence (Q8NER1 whole entry) above

TRPV4-Luc/YFP-CaM = target: T2, TRPV4-Luc/YFP-CaM (Homo sapiens, UniProt Q9HBA0); test: Intermolecular TRPV4-Luc/YFP-CaM BRET test in HEK293T cells; assay type: cell-based
T2 construct: expressed in transfected cells; host or cells: HEK293T
T2 sequence (Q9HBA0 whole entry): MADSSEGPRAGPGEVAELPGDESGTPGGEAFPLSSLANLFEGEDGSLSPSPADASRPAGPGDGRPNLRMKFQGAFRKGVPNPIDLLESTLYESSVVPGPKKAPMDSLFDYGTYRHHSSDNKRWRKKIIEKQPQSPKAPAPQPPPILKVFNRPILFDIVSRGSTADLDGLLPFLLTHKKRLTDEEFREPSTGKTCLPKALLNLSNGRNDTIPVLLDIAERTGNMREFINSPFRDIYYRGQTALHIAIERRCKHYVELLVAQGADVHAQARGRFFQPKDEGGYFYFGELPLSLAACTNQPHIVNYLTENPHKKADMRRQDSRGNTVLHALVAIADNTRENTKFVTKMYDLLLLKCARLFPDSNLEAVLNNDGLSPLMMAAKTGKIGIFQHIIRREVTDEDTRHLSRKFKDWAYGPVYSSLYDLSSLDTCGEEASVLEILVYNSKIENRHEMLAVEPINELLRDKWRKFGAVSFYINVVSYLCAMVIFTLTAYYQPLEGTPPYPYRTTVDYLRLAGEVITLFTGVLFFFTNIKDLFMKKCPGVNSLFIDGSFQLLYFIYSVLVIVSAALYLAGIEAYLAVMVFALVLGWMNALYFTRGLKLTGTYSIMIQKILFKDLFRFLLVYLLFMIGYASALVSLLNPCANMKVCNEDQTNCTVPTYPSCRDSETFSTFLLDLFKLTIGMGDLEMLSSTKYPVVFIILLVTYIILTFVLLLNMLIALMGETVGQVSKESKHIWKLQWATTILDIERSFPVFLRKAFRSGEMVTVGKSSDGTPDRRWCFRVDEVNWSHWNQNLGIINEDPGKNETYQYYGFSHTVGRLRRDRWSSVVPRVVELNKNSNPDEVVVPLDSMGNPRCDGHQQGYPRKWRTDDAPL
Protocol: An intermolecular TRPV4 BRET probe where the RLuc was fused to the TRPV4 in C-terminal and YFP was fused to the N-terminus part of Calmodulin. Kinetic (FIG. 14A) and dose response curve (FIG. 14B) of the effect of the TRPV4 agonist GSK1016790A on HEK293T cells expressing the TRPV4-Luc/YFP-CaM constructs were obtained. In FIG. 14A, cells were activated with 1 μM of agonist at the time indicated with an arrow. In FIG. 14B, the test was done in presence (square) or absence of the TRPV inhibitor Ruthenium Red (10 μM).

YFP-hTRPV1-rLuc [2] = target: T1, YFP-hTRPV1-rLuc; test: Intracellular calcium by Fura 2-AM, HEK293T cells expressing YFP-hTRPV1-rLuc; assay type: cell-based; details: 1 μM capsaicin, 37° C.
[3] = system: HEK293T cells transfected with an empty vector; test: Intracellular calcium by Fura 2-AM, HEK293T cells transfected with an empty vector; assay type: cell-based, human; details: 1 μM capsaicin, 37° C.
wild-type TRPV1 = target: T3, wild-type TRPV1 (Homo sapiens, UniProt Q8NER1); test: Intracellular calcium by Fura 2-AM, HEK293T cells expressing wild-type TRPV1; assay type: cell-based; details: 1 μM capsaicin, 37° C.
T3 construct: expressed in transfected cells; host or cells: HEK293T
T3 sequence (Q8NER1 whole entry): as the sequence (Q8NER1 whole entry) above

[4] = target: TRPV1-Luc (human; Renilla) (UniProt Q8NER1); test: intermolecular BRET kinetics in living HEK293T cells co-expressing TRPV1-Luc and YFP-CaM, after capsaicin injection
TRPV1-Luc (human; Renilla), sequence (Q8NER1 whole entry): as above

[5] = HEK293T cells pre-incubated with the antagonist, heated
[6] = HEK293T cells pre-incubated with the antagonist
[7] = temperature rise from 25° C. to 42° C.

Compound: c1ccc(C2(c3ccccc3)CCCO2)cc1 [2,2-Diphenyltetrahydrofuran]
- temperature at which BRET signal plateaued (YFP-hTRPV1-rLuc [1]; [5]): 52 °C
- ratio of net BRET as initially measured at 29.5° C. (YFP-hTRPV1-rLuc [1]; [6]): 0.93

Compound: NCCOB(c1ccccc1)c1ccccc1 [2-APB, 2-Aminoethyl diphenylborinate]
- evolution of the BRET signal after addition to the culture media (YFP-hTRPV3-rLuc): increase in the BRET value within seconds

Compound: CCCCCCCCC(=O)NCc1cc(OC)c(O)cc1I [6 iodo-CAPS]
- temperature from which BRET signal decreased (YFP-hTRPV1-rLuc [1]; [5]): 48 °C
- ratio of net BRET as initially measured at 29.5° C. (YFP-hTRPV1-rLuc [1]; [6]): 0.28

Compound: CC(=O)Nc1nc2c(Oc3cc(-c4ccc(C(F)(F)F)cc4)ncn3)cccc2s1 [AMG517]
- effect on the CAPS dose response curve (TRPV1-Luc/YFP-CaM): right shift
- temperature-induced BRET increase (TRPV1-Luc/YFP-CaM; cells preincubated with inhibitor, temperature increased from 25° C. to 50° C.): no significant BRET increase
- effect on the CAPS dose response curve (YFP-hTRPV1-rLuc [1]): right shift
- effect on the capsaicin dose-response curve (YFP-hTRPV1-rLuc [1]): right-shift

Compound: Oc1cc2c(cc1O)CN(C(=S)NCCc1ccc(Cl)cc1)CCC2 [Capsazepine]
- effect on the CAPS dose response curve (TRPV1-Luc/YFP-CaM): right shift
- temperature where BRET signal started to decrease (YFP-hTRPV1-rLuc [1]; 1 μM CPZ, medium heated from 25° C. to 50° C.): 47 °C
- effect on the CAPS dose response curve (YFP-hTRPV1-rLuc [1]): right shift
- effect on the capsaicin dose-response curve (YFP-hTRPV1-rLuc [1]): right-shift

Compound: CC(C)C[C@H](NC(=O)c1cc2ccccc2s1)C(=O)N1CCN(C(=O)[C@H](CO)NS(=O)(=O)c2ccc(Cl)cc2Cl)CC1 [GSK1016790A]
- EC50 (TRPV4-Luc/YFP-CaM; control condition (absence of Ruthenium Red), log value): 12.9 µM

Compound: N.N.N.N.N.N.N.N.N.N.N.N.N.N.[Cl-].[Cl-].[Cl-].[Cl-].[Cl-].[Cl-].[O-2].[O-2].[Ru+3].[Ru+3].[Ru+4] [Ruthenium Red]
- BRET increase induced by the TRPV4 agonist GSK1016790A (TRPV4-Luc/YFP-CaM; Ruthenium Red 10 μM): No BRET increase

Compound: COc1cc(CNC(=O)CCCC/C=C/C(C)C)ccc1O [capsaicin]
- intracellular calcium (Fura 2, I340/I380) (YFP-hTRPV1-rLuc [2]): rapid and important increase of intracellular calcium
- time constant (Tau) of BRET increase (TRPV1-Luc/YFP-CaM; after CAPS injection): 27 s
- BRET over the basal signal following exposure (TRPV1-Luc/YFP-CaM; kinetic, HEK293T cells): robust increase of BRET
- effect of temperature rise on capsaicin dose response (TRPV1-Luc/YFP-CaM; [7]): leftward shift of the power of capsaicin while the efficacy remained unchanged
- time constant (Tau) of BRET increase (YFP-hTRPV1-rLuc [1]; after CAPS injection): 2 s
- BRET over the basal signal following exposure (YFP-hTRPV1-rLuc [1]; kinetic, HEK293T cells): robust increase of BRET
- effect of temperature rise on capsaicin dose response (YFP-hTRPV1-rLuc [1]; [7]): leftward shift of the power of capsaicin while the efficacy remained unchanged
- intracellular calcium (Fura 2, I340/I380) [3]: No calcium increase
- intracellular calcium (Fura 2, I340/I380) (wild-type TRPV1): rapid and important increase of intracellular calcium

Compound: YFP-CaM (from UniProt P0DP23 1-149)
- time constant of the BRET increase after capsaicin [4]: 27 s
